Source: PubChem BioAssay (NCI)
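In this assay, cells in 96-well plates receive the compound at five concentrations for 48 hours. Endpoints are linearly interpolated between the surrounding concentrations. TGI: concentration producing complete growth inhibition.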

How the values were obtained:
Assay in all cases: growth of human tumour cells (NCI), 48 h
DMS 114 small cell lung = test system: DMS 114 small cell lung
SF-539 CNS = test system: SF-539 CNS
LXFL 529 NSCLC = test system: LXFL 529 NSCLC
UACC-257 melanoma = test system: UACC-257 melanoma
DLD-1 colon = test system: DLD-1 colon
UO-31 renal = test system: UO-31 renal
SK-MEL-5 melanoma = test system: SK-MEL-5 melanoma
EKVX NSCLC = test system: EKVX NSCLC
HCT-15 colon = test system: HCT-15 colon
HCC-2998 colon = test system: HCC-2998 colon
NCI-H460 lung = test system: NCI-H460 lung
HCT-116 colon = test system: HCT-116 colon
K-562 leukemia = test system: K-562 leukemia
SNB-75 CNS = test system: SNB-75 CNS
HOP-92 NSCLC = test system: HOP-92 NSCLC
SNB-78 CNS = test system: SNB-78 CNS
CAKI-1 renal = test system: CAKI-1 renal
DMS 273 small cell lung = test system: DMS 273 small cell lung
KM12 colon = test system: KM12 colon
SF-268 CNS = test system: SF-268 CNS
U251 CNS = test system: U251 CNS
MOLT-4 leukemia = test system: MOLT-4 leukemia
SR leukemia = test system: SR leukemia
XF 498 CNS = test system: XF 498 CNS
SW-620 colon = test system: SW-620 colon
KM20L2 colon = test system: KM20L2 colon
CCRF-CEM leukemia = test system: CCRF-CEM leukemia
TK-10 renal = test system: TK-10 renal
SK-MEL-2 melanoma = test system: SK-MEL-2 melanoma
OVCAR-4 ovarian = test system: OVCAR-4 ovarian
M19-MEL melanoma = test system: M19-MEL melanoma
HT29 colon = test system: HT29 colon
SNB-19 CNS = test system: SNB-19 CNS
RPMI-8226 leukemia = test system: RPMI-8226 leukemia
UACC-62 melanoma = test system: UACC-62 melanoma
ACHN renal = test system: ACHN renal
M14 melanoma = test system: M14 melanoma
HOP-62 NSCLC = test system: HOP-62 NSCLC
IGROV1 ovarian = test system: IGROV1 ovarian
SF-295 CNS = test system: SF-295 CNS
OVCAR-8 ovarian = test system: OVCAR-8 ovarian
A549 NSCLC = test system: A549 NSCLC
NCI-H226 lung = test system: NCI-H226 lung
LOX IMVI melanoma = test system: LOX IMVI melanoma
HL-60(TB) leukemia = test system: HL-60(TB) leukemia
A498 renal = test system: A498 renal
RXF 393 renal = test system: RXF 393 renal
NCI-H522 lung = test system: NCI-H522 lung
SN12C renal = test system: SN12C renal
SK-OV-3 ovarian = test system: SK-OV-3 ovarian
NCI-H23 lung = test system: NCI-H23 lung
COLO 205 colon = test system: COLO 205 colon
SK-MEL-28 melanoma = test system: SK-MEL-28 melanoma
OVCAR-5 ovarian = test system: OVCAR-5 ovarian
HOP-18 NSCLC = test system: HOP-18 NSCLC
MALME-3M melanoma = test system: MALME-3M melanoma
OVCAR-3 ovarian = test system: OVCAR-3 ovarian
786-0 renal = test system: 786-0 renal
RXF-631 renal = test system: RXF-631 renal

Measured: TGI

CC(=O)c1ccc(NC(=O)/C(=N\NC(N)=O)C(C#N)CC(C)(C)C=O)cc1 (stereo unspecified)
not listed: HOP-18 NSCLC | MALME-3M melanoma | OVCAR-3 ovarian | 786-0 renal | RXF-631 renal
> 100 µM: all other assays above

CCN(CC)C(=O)c1c(N2CCOCC2)cc(N(CC)CC)oc1=O
not listed: SK-MEL-5 melanoma | CAKI-1 renal | OVCAR-5 ovarian | RXF-631 renal
> 100 µM: all other assays above

COc1cc(C)c(C(=O)/C=C/c2cc(OC)c(O)c(OC)c2)cc1O
78.4 µM: SF-268 CNS
97.5 µM: A498 renal
30.5 µM: HCC-2998 colon
29.9 µM: M14 melanoma
30.7 µM: XF 498 CNS
40.3 µM: LXFL 529 NSCLC
91.1 µM: OVCAR-3 ovarian
54 µM: M19-MEL melanoma
57.5 µM: UO-31 renal
44.6 µM: U251 CNS
39.7 µM: 786-0 renal
44.1 µM: UACC-62 melanoma
36.4 µM: NCI-H23 lung
57.6 µM: KM20L2 colon
39.6 µM: NCI-H522 lung
38.8 µM: SK-MEL-2 melanoma
69.3 µM: HOP-62 NSCLC
93.1 µM: SF-539 CNS
85.1 µM: SK-OV-3 ovarian
72.3 µM: DMS 114 small cell lung
41.4 µM: SK-MEL-28 melanoma
70.8 µM: SW-620 colon
70.1 µM: DMS 273 small cell lung
33.6 µM: SK-MEL-5 melanoma
50 µM: KM12 colon
27 µM: HCT-116 colon
69.9 µM: OVCAR-5 ovarian
85 µM: IGROV1 ovarian
49.3 µM: OVCAR-4 ovarian
44.5 µM: SNB-19 CNS
64.8 µM: HL-60(TB) leukemia
35.1 µM: DLD-1 colon
59.8 µM: RXF-631 renal
36.9 µM: MALME-3M melanoma
62.7 µM: CCRF-CEM leukemia
not listed: HCT-15 colon | HOP-92 NSCLC | SR leukemia | NCI-H226 lung | RXF 393 renal | SN12C renal | HOP-18 NSCLC
> 100 µM: all other assays above

NNC(=O)CC(=O)Nc1ccccc1F
not listed: SR leukemia | XF 498 CNS | TK-10 renal | SK-MEL-2 melanoma
> 100 µM: all other assays above
